Reference: patent US6113896A, “Pharmaceutical compositions containing ecotin and homologs thereof” (priority 1994, dated 2000)

Key:
[1] = test system: human FXa; assay: Equilibrium inhibition constant with Factor Xa (tight-binding analysis); format: biochemical; conditions: compared with wild type
Experimental: Determination of Equilibrium Inhibition Constants Apparent Ki values (Ki *) for the inhibition of the enzymes tested by ecotin and mutants were measured as follows. All reactions were performed at 25° C. Stock solutions of trypsin were quantitated by active site burst titration with MUGB as previously described (Jameson, G. W. et al., Biochem. J. 131:107-117 [1973]) using a Fluoroskan II plate reader at excitation wavelength of 355 nm and emission wavelength of 460 nm. Data was collected on a Macintosh SE20 using either Delta Soft II Fl v3.31 software (BioMetallics). Active site titrated trypsin was then used to quantitate ecotin active sites using BAPA as the substrate; a stoichiometry of 1:1 was assumed (Chung, C. H. et al., supra). Factor Xa, Factor XIIa, plasma kallikrein, or HLE were then quantitated by active site titration using ecotin as a standard, again assuming 1:1 stoichiometry. In addition, the concentration of HLE was quantitated by methods previously described using a calibrated stock of α1 -proteinase inhibitor to titrate the HLE active sites (Beatty, K. et al., J. Biol. Chem. 255:3931-3934 [1980]); the same HLE active site concentration was determined using both ecotin and α1 -proteinase inhibitor. The substate for FXa was Spectrozyme fXa (0.5 mM); the substrate for FXIIa (0.5 mM) and plasma kallikrein was S2302 (0.5 mM); the substrate for HLE was MeOSuc-Ala-Ala-Pro-Val-pNA (0.4 mM). There was good agreement upon comparison of the protein concentrations determined by amino acid analysis, Bradford analysis (Bradford, M. M. Anal. Biochem. 72:248-254 (1976) or active site titrations for trypsin, ecotin, FXa, FXIIa, plasma kallikrein, and HLE.
Therefore, apparent equilibrium dissociation values (Ki *) were determined using methods derived for tight-binding inhibitors (Morrison, J. F. Biochim. Biophys. Acta 185:269-286 [1969]), (Bieth, J. in Proteinase Inhibitors (Fritz, H., Tschesche, H., Greene, L. J. and Truscheit, E., Ed.) pp 463-469, Springer-Verlag, New York [1974]). Data were fit by nonlinear regression analysis to equation 1 and values for Ki * were determined. [formula] where α is the fractional activity (steady-state inhibited rate divided by the uninhibited rate), [Eo ] is the total enzyme concentration, and [Io ] is the total ecotin concentration. Since the inhibitor and substrate compete for the same site, the true Ki value is related to Ki^* by the expression Ki =Ki */(1+[S]/Km), where Km is the Michaelis constant for the substrate, and [S] is the substrate concentration.
a. […] Following a 1 hour incubation at room temperature to reach equilibration of the enzyme.cndot.inhibitor complex, 20 μl of 5 mM Spectrozyme fXa was added, and the steady-state rate of product formation measured by monitoring the change in absorbance at 405 nm. The Km for Spectrozyme fXa with FXa under these conditions was determined to be 0.23 mM by linear regression analysis of Lineweaver-Burke plots.

[2] = test system: FXa; assay: Ecotin·FXa dissociation rate constant (HLE trap); format: biochemical, human; conditions: calculated from (Ki)·(kon)
Experimental: Determination of FXa dissociation rate constant The dissociation rate constant of the ecotin.cndot.FXa complex was measured using HLE to trap the free ecotin released from the complex. FXa (10 μM) was incubated for 1 h in TNCT buffer in the presence and absence of ecotin (12.5 μM) and diluted 1000-fold into TNCT buffer with and without HLE (500 nM). Aliquots (180 μl ) were removed at various times and initial rates of free FXa were measured at 405 nm with 20 μl of 5 mM Spectrozyme fXa. The product curve (free FXa versus time) was fit to equation 6; the value for koff was determined by nonlinear regression analysis.
To measure the dissociation rate constant of ecotin from FXa, the complex was diluted 1000-fold into buffer containing a 50-fold excess of HLE to trap the free ecotin and prevent reassociation. In the absence of HLE, reassociation of ecotin with FXa was so rapid that free FXa was barely detectible (FIG. 4B). Progress of dissociation was monitored as the increase in hydrolysis rate of Spectrozyme fXa resulting from the increasing free FXa with time. Because HLE prevented reassociation the rate of dissociation of the E·I complex is given by equation (5): [formula] which upon integration gives equation (6): […]
where [E] is the free [FXa] at any time t, [E.cndot.I]0 is the concentration of the complex at time zero, and koff is the first order dissociation rate constant. The time dependent E·I complex dissociation curve fit to equation (6) by nonlinear regression analysis is shown in FIG. 4B; the dissociation rate constant for ecotin tested is shown above in Table I.

[3] = test system: HLE; conditions: relative to α1-proteinase inhibitor with P1 Met, literature; cited from earlier work

Substance	inhibition of FXa, in words [1]	koff (values in parenthesis) [2]	decreased inhibition towards HLE [3]
M84E	significant inhibition	0.00057 s⁻¹	–
α1-Proteinase inhibitor (Pittsburgh): naturally occuring mutant of the serpin α1-proteinase inhibitor which has Arg in the P1 position instead of Met	–	–	10,000 fold
M84D	significant inhibition	–	–
M84A	–	0.00066 s⁻¹	–
